Assay results from ChEMBL document CHEMBL1201862, “PubChem BioAssay data set” (2004).
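Step 1: Grow cells in 96-well plates. Step 2: Expose to compound for 48 hours at 5 concentrations. Step 3: Interpolate endpoints linearly; if unreached, use highest concentration. GI50 = concentration required for 50% inhibition of growth.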 The source made the active and inactive calls. No stated cut-off is given here; in the data, active = GI50 up to about 1.1 µM and inactive = higher.

How the values were obtained:
Experiment in all cases: DTP human tumour cell line panel, 48 h
[1] = system: 786-0
[2] = system: CCRF-CEM
[3] = system: COLO 205
[4] = system: HCC 2998
[5] = system: HCT-15
[6] = system: HL-60
[7] = system: HOP-92
[8] = system: IGROV-1
[9] = system: M14
[10] = system: M19-MEL
[11] = system: NCI-H226
[12] = system: OVCAR-4
[13] = system: SK-OV-3
[14] = system: SN12C
[15] = system: SNB-75
[16] = system: KM12

CCCCCCCCCCCCCCC(O)C1CCC(C(O)CCC(O)CCCCCC(O)CC2=CC(C)OC2=O)O1 (stereo unspecified)
GI50 [1]: 2.43 µM (inactive) | GI50 [2]: 1.29 µM (inactive) | GI50 [3]: 2.43 µM (inactive) | GI50 [4]: 2.51 µM (inactive) | GI50 [5]: 1.29 µM | GI50 [6]: 0.0117 µM (active) | GI50 [7]: 2.06 µM (inactive) | GI50 [8]: 1.44 µM (inactive) | GI50 [9]: 6.3 µM (inactive) | GI50 [10]: 2 µM (inactive) | GI50 [11]: 1.09 µM (active) | GI50 [12]: 0.013 µM (active) | GI50 [13]: 4.73 µM (inactive) | GI50 [14]: 1.24 µM (inactive) | GI50 [15]: 2.22 µM (inactive)

N#CNC(=N)NC(=O)/C=C/C=C/c1ccc(Cl)cc1
GI50 [1]: 88.5 µM (inactive) | GI50 [2]: > 100 µM (inactive) | GI50 [3]: > 100 µM (inactive) | GI50 [5]: > 100 µM | GI50 [6]: > 100 µM (inactive) | GI50 [7]: > 100 µM (inactive) | GI50 [8]: > 100 µM (inactive) | GI50 [16]: > 100 µM (inactive) | GI50 [9]: > 100 µM (inactive) | GI50 [10]: > 100 µM (inactive) | GI50 [11]: > 100 µM (inactive) | GI50 [12]: 57.5 µM (inactive) | GI50 [13]: > 100 µM (inactive) | GI50 [14]: > 100 µM (inactive) | GI50 [15]: 24.2 µM (inactive)

C[C@]12CCC(=O)C=C1CC[C@@H]1[C@@H]2[C@@H](O)C[C@@]2(C)[C@H]1CC[C@]2(O)C(=O)COC(=O)COCC(=O)O
GI50 [1]: > 100 µM (inactive) | GI50 [2]: > 100 µM (inactive) | GI50 [3]: > 100 µM (inactive) | GI50 [4]: > 100 µM (inactive) | GI50 [5]: > 100 µM | GI50 [6]: > 100 µM (inactive) | GI50 [7]: > 100 µM (inactive) | GI50 [8]: > 100 µM (inactive) | GI50 [16]: > 100 µM (inactive) | GI50 [9]: > 100 µM (inactive) | GI50 [10]: > 100 µM (inactive) | GI50 [11]: > 100 µM (inactive) | GI50 [12]: > 100 µM (inactive) | GI50 [13]: > 100 µM (inactive) | GI50 [14]: > 100 µM (inactive) | GI50 [15]: > 100 µM (inactive)

CCOC(=O)CNc1nnnn1C1OC(CO)C(O)C1O (stereo unspecified)
GI50 [1]: > 100 µM (inactive) | GI50 [2]: > 100 µM (inactive) | GI50 [3]: > 100 µM (inactive) | GI50 [4]: > 100 µM (inactive) | GI50 [5]: > 100 µM | GI50 [8]: > 100 µM (inactive) | GI50 [16]: > 100 µM (inactive) | GI50 [9]: > 100 µM (inactive) | GI50 [10]: > 100 µM (inactive) | GI50 [11]: > 100 µM (inactive) | GI50 [13]: > 100 µM (inactive) | GI50 [14]: > 100 µM (inactive) | GI50 [15]: > 100 µM (inactive)

COC1=CC(=O)[C@]2(C)[C@H](C1=O)C(C)[C@H]2c1ccccc1 (stereo partly specified)
GI50 [1]: > 100 µM (inactive) | GI50 [2]: > 100 µM (inactive) | GI50 [3]: > 100 µM (inactive) | GI50 [4]: > 100 µM (inactive) | GI50 [5]: > 100 µM | GI50 [6]: > 100 µM (inactive) | GI50 [7]: > 100 µM (inactive) | GI50 [8]: > 100 µM (inactive) | GI50 [16]: > 100 µM (inactive) | GI50 [9]: > 100 µM (inactive) | GI50 [10]: > 100 µM (inactive) | GI50 [11]: > 100 µM (inactive) | GI50 [12]: > 100 µM (inactive) | GI50 [13]: > 100 µM (inactive) | GI50 [15]: > 100 µM (inactive)

COc1ccc(-c2cc(-c3ccco3)c(C#N)c(=O)[nH]2)cc1
GI50 [1]: 91 µM (inactive) | GI50 [2]: > 100 µM (inactive) | GI50 [3]: > 100 µM (inactive) | GI50 [4]: > 100 µM (inactive) | GI50 [5]: 57.7 µM | GI50 [6]: > 100 µM (inactive) | GI50 [7]: > 100 µM (inactive) | GI50 [8]: > 100 µM (inactive) | GI50 [16]: > 100 µM (inactive) | GI50 [9]: > 100 µM (inactive) | GI50 [10]: 87.9 µM (inactive) | GI50 [11]: > 100 µM (inactive) | GI50 [12]: 29.2 µM (inactive) | GI50 [13]: 23.2 µM (inactive) | GI50 [14]: 32.1 µM (inactive) | GI50 [15]: 18 µM (inactive)

CC(C)(CN1CCCCC1)C(=O)/C=C/c1ccccc1
GI50 [1]: 13.6 µM (inactive) | GI50 [2]: 5.93 µM (inactive) | GI50 [3]: 16.4 µM (inactive) | GI50 [4]: 14.7 µM (inactive) | GI50 [5]: 13.1 µM | GI50 [8]: 22.8 µM (inactive) | GI50 [16]: 9.25 µM (inactive) | GI50 [9]: 18.7 µM (inactive) | GI50 [10]: 18.9 µM (inactive) | GI50 [11]: 29 µM (inactive) | GI50 [12]: 26 µM (inactive) | GI50 [13]: 21.3 µM (inactive) | GI50 [14]: 15.4 µM (inactive) | GI50 [15]: 11.6 µM (inactive)

COc1cc(-c2cc(O)c3ccccc3n2)cc(OC)c1OC
GI50 [1]: > 75 µM (inactive) | GI50 [2]: > 75 µM (inactive) | GI50 [3]: > 75 µM (inactive) | GI50 [4]: > 75 µM (inactive) | GI50 [5]: > 75 µM | GI50 [6]: > 7.5 µM (inactive) | GI50 [16]: > 75 µM (inactive) | GI50 [9]: > 75 µM (inactive) | GI50 [10]: > 75 µM (inactive) | GI50 [13]: > 75 µM (inactive) | GI50 [14]: > 75 µM (inactive) | GI50 [15]: 50.5 µM (inactive)

COC(=O)C1CCC2(CC1)NC(=O)NC2=O (stereo unspecified)
GI50 [1]: > 100 µM (inactive) | GI50 [2]: > 100 µM (inactive) | GI50 [3]: > 100 µM (inactive) | GI50 [4]: > 100 µM (inactive) | GI50 [6]: > 100 µM (inactive) | GI50 [7]: > 100 µM (inactive) | GI50 [8]: > 100 µM (inactive) | GI50 [16]: > 100 µM (inactive) | GI50 [9]: > 100 µM (inactive) | GI50 [10]: > 100 µM (inactive) | GI50 [11]: > 100 µM (inactive) | GI50 [12]: > 100 µM (inactive) | GI50 [13]: > 100 µM (inactive) | GI50 [14]: > 100 µM (inactive) | GI50 [15]: > 100 µM (inactive)
